# Measurements taken from US9371280B2, “Substituted pyrrolidine-2-carboxamides” (Hoffmann-La Roche Inc., priority 2012, dated 2016).
# Structures can show the parent of a compound that is named as a salt.
# Target: interaction between p53 and MDM2 proteins (recombinant GST-tagged MDM2) (Homo sapiens, UniProt Q00987)
# Test: HTRF assay of inhibition of the p53-MDM2 interaction (GST-MDM2 / biotinylated p53 peptide);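 further: FRET read-out from Eu-labelled anti-GST antibody to streptavidin-APC, with 90 nM N-terminally biotinylated p53 peptide and 160 ng/ml GST-MDM2 in Tris-borate saline containing 1 mM DTT, 384-well format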
# Type: binding
# Conditions: HTRF, 0.02% BSA, 37° C. 1 h
# Chain of interaction between p53 and MDM2 proteins (recombinant GST-tagged MDM2) (Q00987 whole entry): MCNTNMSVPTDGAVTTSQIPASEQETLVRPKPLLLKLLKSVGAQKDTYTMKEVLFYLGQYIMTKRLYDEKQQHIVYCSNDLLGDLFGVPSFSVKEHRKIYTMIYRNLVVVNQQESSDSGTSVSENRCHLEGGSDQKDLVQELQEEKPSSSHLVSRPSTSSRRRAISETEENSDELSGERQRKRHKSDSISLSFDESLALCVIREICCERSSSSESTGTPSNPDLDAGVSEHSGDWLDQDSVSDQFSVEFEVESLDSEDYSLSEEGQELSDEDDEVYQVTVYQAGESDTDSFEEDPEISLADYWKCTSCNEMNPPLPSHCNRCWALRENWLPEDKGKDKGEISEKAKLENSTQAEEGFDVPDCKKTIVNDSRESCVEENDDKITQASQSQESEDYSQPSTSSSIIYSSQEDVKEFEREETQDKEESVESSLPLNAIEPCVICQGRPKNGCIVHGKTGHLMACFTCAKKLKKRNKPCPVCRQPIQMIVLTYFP
row,SMILES,IC50 [µM]
1,"COc1cc(C(=O)N[C@@H]2[C@@H](O)[C@H](O)[C@@H](CO)O[C@@H]2O)ccc1NC(=O)[C@@H]1N[C@@H](CC(C)(C)C)[C@](C#N)(c2ccc(Cl)cc2F)[C@H]1c1cccc(Cl)c1F [Example 56, (2R,3S,4R,5S)-4-(4-Chloro-2-fluoro-phenyl)-3-(3-chloro-2-fluoro-phenyl)-4-cyano-5-(2,2-dimethyl-propyl)-pyrrolidine-2-carboxylic acid [2-methoxy-4-((2S,3R,4R,5S,6R)-2,4,5-trihydroxy-6-hydroxymethyl-tetrahydro-pyran-3-ylcarbamoyl)-phenyl]-amide, hydrochloride]",0.00988
2,"COc1cc(C(=O)OCCN2CCN(CCOC(=O)c3ccc(NC(=O)[C@@H]4N[C@@H](CC(C)(C)C)[C@](C#N)(c5ccc(Cl)cc5F)[C@H]4c4cccc(Cl)c4F)c(OC)c3)CC2)ccc1NC(=O)[C@@H]1N[C@@H](CC(C)(C)C)[C@](C#N)(c2ccc(Cl)cc2F)[C@H]1c1cccc(Cl)c1F [Example 60, 4-{[(2R,3S,4R,5S)-4-(4-Chloro-2-fluoro-phenyl)-3-(3-chloro-2-fluoro-phenyl)-4-cyano-5-(2,2-dimethyl-propyl)-pyrrolidine-2-carbonyl]-amino}-3-methoxy-benzoic acid, 2-[4-(2-hydroxy-ethyl)-piperazin-1-yl]-ethyl ester, dimer]",0.211
3,"COc1cc(C(=O)OCC(=O)N2CCN(C)CC2)ccc1NC(=O)[C@@H]1N[C@@H](CC(C)(C)C)[C@](C#N)(c2ccc(Cl)cc2F)[C@H]1c1cccc(Cl)c1F [Example 64, 4-{[(2R,3S,4R,5S)-4-(4-Chloro-2-fluoro-phenyl)-3-(3-chloro-2-fluoro-phenyl)-4-cyano-5-(2,2-dimethyl-propyl)-pyrrolidine-2-carbonyl]-amino}-3-methoxy-benzoic acid 2-(4-methyl-piperazin-1-yl)-2-oxo-ethyl ester, hydrochloride]",0.0116
4,"COc1cc(C(=O)OCC(=O)NCC2COC(C)(C)O2)ccc1NC(=O)[C@@H]1N[C@@H](CC(C)(C)C)[C@](C#N)(c2ccc(Cl)cc2F)[C@H]1c1cccc(Cl)c1F (stereo partly drawn) [Example 67, 4-{[(2R,3S,4R,5S)-4-(4-Chloro-2-fluoro-phenyl)-3-(3-chloro-2-fluoro-phenyl)-4-cyano-5-(2,2-dimethyl-propyl)-pyrrolidine-2-carbonyl]-amino}-3-methoxy-benzoic acid [(2,2-dimethyl-[1,3]dioxolan-4-ylmethyl)-carbamoyl]-methyl ester]",0.0118
5,"COc1cc(C(=O)OCC(=O)NCC(O)CO)ccc1NC(=O)[C@@H]1N[C@@H](CC(C)(C)C)[C@](C#N)(c2ccc(Cl)cc2F)[C@H]1c1cccc(Cl)c1F (stereo partly drawn) [Example 68, 4-{[(2R,3S,4R,5S)-4-(4-Chloro-2-fluoro-phenyl)-3-(3-chloro-2-fluoro-phenyl)-4-cyano-5-(2,2-dimethyl-propyl)-pyrrolidine-2-carbonyl]-amino}-3-methoxy-benzoic acid (2,3-dihydroxy-propylcarbamoyl)-methyl ester]",0.012
6,"COc1cc(C(=O)OCC(=O)N[C@@H](CCC(=O)O)C(=O)O)ccc1NC(=O)[C@@H]1N[C@@H](CC(C)(C)C)[C@](C#N)(c2ccc(Cl)cc2F)[C@H]1c1cccc(Cl)c1F [Example 71, (S)-2-[2-(4-{[(2R,3S,4R,5S)-4-(4-Chloro-2-fluoro-phenyl)-3-(3-chloro-2-fluoro-phenyl)-4-cyano-5-(2,2-dimethyl-propyl)-pyrrolidine-2-carbonyl]-amino}-3-methoxy-benzoyloxy)-acetylamino]-pentanedioic acid]",0.00594
7,"COCCOCCOCCOC(=O)COC(=O)c1ccc(NC(=O)[C@@H]2N[C@@H](CC(C)(C)C)[C@](C#N)(c3ccc(Cl)cc3F)[C@H]2c2cccc(Cl)c2F)c(OC)c1 [Example 72, 4-{[(2R,3S,4R,5S)-4-(4-Chloro-2-fluoro-phenyl)-3-(3-chloro-2-fluoro-phenyl)-4-cyano-5-(2,2-dimethyl-propyl)-pyrrolidine-2-carbonyl]-amino}-3-methoxy-benzoic acid 2-[2-(2-methoxy-ethoxy)-ethoxy]-ethoxycarbonylmethyl ester]",0.0203
8,"COCCOCCOCCOCCOC(=O)COC(=O)c1ccc(NC(=O)[C@@H]2N[C@@H](CC(C)(C)C)[C@](C#N)(c3ccc(Cl)cc3F)[C@H]2c2cccc(Cl)c2F)c(OC)c1 [Example 73, 4-{[(2R,3S,4R,5S)-4-(4-Chloro-2-fluoro-phenyl)-3-(3-chloro-2-fluoro-phenyl)-4-cyano-5-(2,2-dimethyl-propyl)-pyrrolidine-2-carbonyl]-amino}-3-methoxy-benzoic acid 2-{2-[2-(2-methoxy-ethoxy)-ethoxy]-ethoxy}-ethoxycarbonylmethyl ester]",0.0196
9,"COc1cc(C(=O)OCC(=O)NCCOCCOCCOCCO)ccc1NC(=O)[C@@H]1N[C@@H](CC(C)(C)C)[C@](C#N)(c2ccc(Cl)cc2F)[C@H]1c1cccc(Cl)c1F [Example 75, 4-{[(2R,3S,4R,5S)-4-(4-Chloro-2-fluoro-phenyl)-3-(3-chloro-2-fluoro-phenyl)-4-cyano-5-(2,2-dimethyl-propyl)-pyrrolidine-2-carbonyl]-amino}-3-methoxy-benzoic acid (2-{2-[2-(2-hydroxy-ethoxy)-ethoxy]-ethoxy}-ethylcarbamoyl)-methyl ester]",0.0092
10,"COc1cc(C(=O)NCCOCCOCCOCCNC(=O)c2ccc(NC(=O)[C@@H]3N[C@@H](CC(C)(C)C)[C@](C#N)(c4ccc(Cl)cc4F)[C@H]3c3cccc(Cl)c3F)c(OC)c2)ccc1NC(=O)[C@@H]1N[C@@H](CC(C)(C)C)[C@](C#N)(c2ccc(Cl)cc2F)[C@H]1c1cccc(Cl)c1F [Example 76, (2R,3S,4R,5S)-4-(4-Chloro-2-fluoro-phenyl)-3-(3-chloro-2-fluoro-phenyl)-4-cyano-5-(2,2-dimethyl-propyl)-pyrrolidine-2-carboxylic acid [4-(2-{2-[2-(2-amino-ethoxy)-ethoxy]-ethoxy}-ethylcarbamoyl)-2-methoxy-phenyl]-amide, dimer]",0.0643
11,"COc1cc(C(=O)NCCOCCOCCOCCN)ccc1NC(=O)[C@@H]1N[C@@H](CC(C)(C)C)[C@](C#N)(c2ccc(Cl)cc2F)[C@H]1c1cccc(Cl)c1F [Example 77, (2R,3S,4R,5S)-4-(4-Chloro-2-fluoro-phenyl)-3-(3-chloro-2-fluoro-phenyl)-4-cyano-5-(2,2-dimethyl-propyl)-pyrrolidine-2-carboxylic acid [4-(2-{2-[2-(2-amino-ethoxy)-ethoxy]-ethoxy}-ethylcarbamoyl)-2-methoxy-phenyl]-amide]",0.00631

# Results, then the molecule that gave them:
row,IC50 [µM],SMILES
1,0.00455,"COc1cc(C(=O)N[C@H](CCC(=O)O)C(=O)O)ccc1NC(=O)[C@@H]1N[C@@H](CC(C)(C)C)[C@](C#N)(c2ccc(Cl)cc2F)[C@H]1c1cccc(Cl)c1F [Example 54, (R)-2-(4-{[(2R,3S,4R,5S)-4-(4-Chloro-2-fluoro-phenyl)-3-(3-chloro-2-fluoro-phenyl)-4-cyano-5-(2,2-dimethyl-propyl)-pyrrolidine-2-carbonyl]-amino}-3-methoxy-benzoylamino)-pentanedioic acid, hydrochloride]"
2,0.0091,"COc1cc(C(=O)N(C)C[C@H](O)[C@@H](O)[C@H](O)[C@H](O)CO)ccc1NC(=O)[C@@H]1N[C@@H](CC(C)(C)C)[C@](C#N)(c2ccc(Cl)cc2F)[C@H]1c1cccc(Cl)c1F [Example 55, (2R,3S,4R,5S)-4-(4-Chloro-2-fluoro-phenyl)-3-(3-chloro-2-fluoro-phenyl)-4-cyano-5-(2,2-dimethyl-propyl)-pyrrolidine-2-carboxylic acid {2-methoxy-4-[methyl-((2S,3R,4R,5R)-2,3,4,5,6-pentahydroxy-hexyl)-carbamoyl]-phenyl}-amide, hydrochloride]"
3,0.0172,"COc1cc(C(=O)OCCOCCOCCOCCO)ccc1NC(=O)[C@@H]1N[C@@H](CC(C)(C)C)[C@](C#N)(c2ccc(Cl)cc2F)[C@H]1c1cccc(Cl)c1F [Example 57, 4-{[(2R,3S,4R,5S)-4-(4-Chloro-2-fluoro-phenyl)-3-(3-chloro-2-fluoro-phenyl)-4-cyano-5-(2,2-dimethyl-propyl)-pyrrolidine-2-carbonyl]-amino}-3-methoxy-benzoic acid 2-{2-[2-(2-hydroxy-ethoxy)-ethoxy]-ethoxy}-ethyl ester, hydrochloride]"
4,0.0114,"COc1cc(C(=O)OCCN2CCN(CCO)CC2)ccc1NC(=O)[C@@H]1N[C@@H](CC(C)(C)C)[C@](C#N)(c2ccc(Cl)cc2F)[C@H]1c1cccc(Cl)c1F [Example 61, 4-{[(2R,3S,4R,5S)-4-(4-Chloro-2-fluoro-phenyl)-3-(3-chloro-2-fluoro-phenyl)-4-cyano-5-(2,2-dimethyl-propyl)-pyrrolidine-2-carbonyl]-amino}-3-methoxy-benzoic acid 2-[4-(2-hydroxy-ethyl)-piperazin-1-yl]-ethyl ester]"
5,0.0129,"COc1cc(C(=O)OCC(N)=O)ccc1NC(=O)[C@@H]1N[C@@H](CC(C)(C)C)[C@](C#N)(c2ccc(Cl)cc2F)[C@H]1c1cccc(Cl)c1F [Example 65, 4-{[(2R,3S,4R,5S)-4-(4-Chloro-2-fluoro-phenyl)-3-(3-chloro-2-fluoro-phenyl)-4-cyano-5-(2,2-dimethyl-propyl)-pyrrolidine-2-carbonyl]-amino}-3-methoxy-benzoic acid carbamoylmethyl ester]"
6,0.00904,"COc1cc(C(=O)OCC(=O)N2CCOCC2)ccc1NC(=O)[C@@H]1N[C@@H](CC(C)(C)C)[C@](C#N)(c2ccc(Cl)cc2F)[C@H]1c1cccc(Cl)c1F [Example 66, 4-{[(2R,3S,4R,5S)-4-(4-Chloro-2-fluoro-phenyl)-3-(3-chloro-2-fluoro-phenyl)-4-cyano-5-(2,2-dimethyl-propyl)-pyrrolidine-2-carbonyl]-amino}-3-methoxy-benzoic acid 2-morpholin-4-yl-2-oxo-ethyl ester]"
7,0.0564,"COc1cc(C(=O)OCC(=O)N[C@@H](CCC(=O)OCc2ccccc2)C(=O)OCc2ccccc2)ccc1NC(=O)[C@@H]1N[C@@H](CC(C)(C)C)[C@](C#N)(c2ccc(Cl)cc2F)[C@H]1c1cccc(Cl)c1F [Example 70, (S)-2-[2-(4-{[(2R,3S,4R,5S)-4-(4-Chloro-2-fluoro-phenyl)-3-(3-chloro-2-fluoro-phenyl)-4-cyano-5-(2,2-dimethyl-propyl)-pyrrolidine-2-carbonyl]-amino}-3-methoxy-benzoyloxy)-acetylamino]-pentanedioic acid dibenzyl ester]"
